The conditions of series [1]: patients, p = 0.03; cited from earlier work.
Series [2] concerns MDA-MB-231 cells (HER2-negative). The series can be described thus: Anti-proliferation assay (MTT). The format is cell-based, human. How it is done: (§1) Cells were grown in DMEM medium supplemented with 10% fetal bovine serum, 100 U/mL penicillin, […] streptomycin and 2 mM/L L-glutamine. Cells were maintained at 37 °C in 5% CO2.
(§2) Cells were seeded in 96-well plates at a density of 5 × 10^3 cells per well in 100 μL of medium. […] Media were then replaced with serum-free DMEM containing MTT (0.5 mg/mL), then cells were incubated for 4 h. Media were removed and 150 μL of DMSO was added to dissolve formazan crystals. Absorbance was measured at 570 nm using a microplate reader. Untreated cells were used as a negative control (100% viability). IC50 was calculated by fitting the curve of cell viability against the drug concentration.

The subject of a further series is MDA-MB-453 cells. The series is described as follows: Annexin V-FITC/PI apoptosis assay. The format is cell-based, human. The settings on record: 56 ng/mL, 24 h. As for the experimental part: To evaluate apoptosis and necrosis, we used Annexin V-FITC/PI assays, as per the manufacturer’s protocols. Briefly, MDA-MB-453 cells (1 × 10^6 cells/well) were seeded in six-well plates and maintained at 37 °C in 5% CO2 and a 95% humidified atmosphere. The medium was replaced with freshly prepared medium containing drug-loaded formulations. Untreated cells were used as controls. After 24 h, cells were washed twice with PBS and resuspended in 500 μL of binding buffer. We added 5 μL of FITC-conjugated Annexin V and 10 μL of PI, and incubated cells for 15 min at room temperature in the dark. Cells were then analyzed by a Muse™ Cell Analyzer (Merck-Millipore, Germany) and the extent of apoptosis and necrosis was determined.

In series [3] the test system is MDA-MB-453 cells (HER2-positive). The series is described as follows: Anti-proliferation assay (MTT). The format is cell-based. To be noted: Homo sapiens. As for the experimental part: as §1, §2

The values below come from article PMC4823704, “Trastuzumab-grafted PAMAM dendrimers for the selective delivery of anticancer drugs to HER2-positive breast cancer” (Scientific Reports, 2016).

Some results are limits rather than exact numbers.

On to `CC(=O)O[C@@]12CO[C@@H]1C[C@H](O)[C@@]1(C)C(=O)[C@H](O)C3=C(C)[C@@H](OC(=O)[C@H](O)[C@@H](NC(=O)OC(C)(C)C)c4ccccc4)C[C@@](O)([C@@H](OC(=O)c4ccccc4)[C@H]21)C3(C)C` [DTX, docetaxel], for which, in series [1], the survival is recorded as 22.7 months. The molecule also displayed a cell viability in series [2] (48 h, MDA-MB-231) of 61.9%. Besides, the IC50 in series [2] (Homo sapiens, MDA-MB-231, 48 h of incubation) is over 0.25 mg/L. Further, in the series with MDA-MB-453 cells, the live cells amounted to 83.1% and the “total percentage of apoptotic cells” value was found to be 16.5%. Also, the viability at 0.125 µg/mL in series [3] (125 ng/mL drug concentration, 48 h, MDA-MB-453, read-out: cell viability) was 69%. The molecule also showed an IC50 in series [3] (MDA-MB-453, 48 h of incubation) of over 0.25 mg/L.
